Earlier results as cited in publication PMC6311893, “Computational prediction of plasma protein binding of cyclic peptides from small molecule experimental data using sparse modeling techniques” (BMC Bioinformatics, 2018).

System: plasma protein
Conditions: cited from earlier work

In the case of `O=C(O)[C@H]1O[C@@H](Oc2cc3oc(-c4ccc(O)cc4)cc(=O)c3c(O)c2O)[C@H](O)[C@@H](O)[C@@H]1O` [scutellarin], the “PPB (fb)” value is given as 0.82.

Same assay, conditions: fraction bound to plasma protein; small molecule dataset, sheet 1-SM (Set Dte = test, Dtr = training); ref Ingle et al.; cited from earlier work

Compared with `C#C[C@]1(O)CC[C@H]2[C@@H]3CCC4=CCCC[C@@H]4[C@H]3C(=C)C[C@@]21CC` [desogestrel], `CC(C)C[C@H]1C(=O)N2CCC[C@H]2[C@]2(O)O[C@](NC(=O)[C@@H]3C=C4c5cccc6[nH]c(Br)c(c56)C[C@H]4N(C)C3)(C(C)C)C(=O)N12` [bromocriptine] is lower in “PPB (fb)” value: 0.98 for the first, 0.95 for the second.

First: CCOC(=O)/C=C(C)/C=C/C=C(C)/C=C/c1c(C)cc(OC)c(C)c1C [etretinate]
Second: COc1ccc2[nH]c([S+]([O-])Cc3ncc(C)c(OC)c3C)nc2c1 (centres unmarked) [Omeprazole]
The “PPB (fb)” value of the first is higher: 0.99 for the first, 0.96 for the second.

Going from `COC(=O)N[C@H](C(=O)N[C@@H](Cc1ccccc1)[C@@H](O)CN(Cc1ccc(-c2ccccn2)cc1)NC(=O)[C@@H](NC(=O)OC)C(C)(C)C)C(C)(C)C` [Atazanavir] to `O=C(O)CN1C(=O)[C@@H](N[C@@H](CCc2ccccc2)C(=O)O)CCc2ccccc21` [Benazeprilat], the “PPB (fb)” value rises from 0.86 to 0.95.

Going from `C[C@@](Cc1ccc(O)c(O)c1)(NN)C(=O)O` [carbidopa] to `CC(=O)Nc1ccc(/C=N/NC(N)=S)cc1` [amithiozone], the “PPB (fb)” value rises from 0.36 to 0.95.

Going from `CC(=O)Nc1c(I)c(NC(C)=O)c(I)c(C(=O)O)c1I` [Diatrizoic Acid (Amidotrizoate)] to `CCOC(=O)NC1=C(N2CC2)C(=O)C(NC(=O)OCC)=C(N2CC2)C1=O` [diaziquone], the “PPB (fb)” value rises from 0.02 to 0.79.

First: CCN1CCN(c2cc3c(cc2F)c(=O)c(C(=O)O)cn3-c2ccc(OC)cc2)CC1 [5cb (p-OCH3__N-C2H5)]
Second: COc1ccc(CCN2CCC(Nc3nc4ccccc4n3Cc3ccc(F)cc3)CC2)cc1 [astemizole]
The “PPB (fb)” value of the first is lower: 0.51 for the first, 0.97 for the second.

Compared with `CC(CC1c2ccccc2CCc2ccccc21)CN(C)C` (centres unmarked) [butriptyline], `O=C(O)COC(=O)Cc1ccccc1Nc1c(Cl)cccc1Cl` [aceclofenac] is higher in “PPB (fb)” value: 0.95 for the first, 0.99 for the second.

Going from `O=c1[nH]c2ccccc2n1C1CCN(CCCC(c2ccc(F)cc2)c2ccc(F)cc2)CC1` [pimozide] to `O=C(O)Cc1ccccc1Nc1c(Cl)cccc1Cl` [diclofenac acid], the “PPB (fb)” value rises from 0.95 to 0.99.

Going from `Cc1cn([C@H]2C[C@H](N=[N+]=[N-])[C@@H](CO)O2)c(=O)[nH]c1=O` [Zidovudine] to `CC1(C)SC2C(NC(=O)c3cccc4ccccc34)C(=O)N2C1C(=O)O` (centres unmarked) [penicillin64], the “PPB (fb)” value rises from 0.28 to 0.86.

First: NCCCNCCSP(=O)(O)O [amifostine]
Second: C=CCN1C[C@H](C(=O)N(CCCN(C)C)C(=O)NCC)C[C@@H]2c3cccc4[nH]cc(c34)C[C@H]21 [cabergoline]
The “PPB (fb)” value of the first is lower: 0.04 for the first, 0.41 for the second.

Going from `C=CC1=C(C(=O)O)N2C(=O)[C@@H](NC(=O)/C(=N\O)c3csc(N)n3)[C@H]2SC1` [cefdinir] to `CC1(C)SC2C(NC(=O)C(Br)c3ccccc3)C(=O)N2C1C(=O)O` (centres unmarked) [penicillin21], the “PPB (fb)” value rises from 0.65 to 0.82.

Same assay, conditions: fraction bound to plasma protein; small molecule dataset, sheet 1-SM, Set Dtr; ref Ingle et al.; cited from earlier work

Compared with `CC(CCc1ccccc1)NCC(O)c1ccc(O)c(C(N)=O)c1` (centres unmarked) [Labetalol], `CC(C)(C)NCC(O)c1ccc(O)c(CO)c1` (centres unmarked) [Albuterol (salbutamol)] is lower in “PPB (fb)” value: 0.5 for the first, 0.09 for the second.

First: CC(=O)NC(CS)C(=O)O (centres unmarked) [Acetylcysteine__ N-]
Second: CO/N=C(\C(=O)N[C@@H]1C(=O)N2C(C(=O)O)=C(C)CS[C@H]12)c1csc(N)n1 [Cefetamet]
The “PPB (fb)” value of the first is higher: 0.83 for the first, 0.22 for the second.

Going from `CCCNC(C)C(=O)Nc1ccccc1C` (centres unmarked) [Prilocaine] to `Cc1cccc(C)c1OCC(C)N` (centres unmarked) [Mexiletine], the “PPB (fb)” value rises from 0.39 to 0.63.

First: Cc1cccc(C)c1NC(=O)c1cc(S(N)(=O)=O)c(Cl)cc1O [xipamide]
Second: CCOC(=O)c1ncn2c1CN(C)C(=O)c1cc(F)ccc1-2 [Flumazenil]
The “PPB (fb)” value of the first is higher: 0.99 for the first, 0.46 for the second.

Going from `COc1cccc2c1C(=O)c1c(O)c3c(c(O)c1C2=O)C[C@@](O)(C(=O)CO)C[C@@H]3O[C@H]1C[C@H](N)[C@@H](O)[C@H](C)O1` [Epirubicin] to `C[C@@H]1C[C@H]2[C@@H]3CCC4=CC(=O)C=C[C@]4(C)[C@@]3(F)[C@@H](O)C[C@]2(C)[C@@]1(O)C(=O)CO` [Dexamethasone], the “PPB (fb)” value falls from 0.75 to 0.68.

First: C#C[C@]1(O)CC[C@H]2[C@@H]3CCc4cc(O)ccc4[C@H]3CC[C@@]21C [Ethinylestradiol]
Second: CN(C)CCCN1c2ccccc2CCc2cc(O)ccc21 [Hydroxyimipramine__ 2-]
The “PPB (fb)” value of the first is higher: 0.97 for the first, 0.64 for the second.

Compared with `C[C@@H](O[C@H]1OCCN(Cc2n[nH]c(=O)[nH]2)[C@H]1c1ccc(F)cc1)c1cc(C(F)(F)F)cc(C(F)(F)F)c1` [Aprepitant], `Cc1ccnc2c1NC(=O)c1cccnc1N2C1CC1` [Nevirapine] is lower in “PPB (fb)” value: 0.95 for the first, 0.64 for the second.

Compared with `O=c1[nH]cc(F)c(=O)[nH]1` [Fluorouracil], `Cc1nc2c([nH]1)-c1ccccc1N(C(=O)c1ccc(NC(=O)c3ccccc3-c3ccccc3)cc1)CC2` [Conivaptan] is higher in “PPB (fb)” value: 0.23 for the first, 0.99 for the second.

Compared with `CCC1=C(C)CN(C(=O)NCCc2ccc(S(=O)(=O)NC(=O)N[C@H]3CC[C@H](C)CC3)cc2)C1=O` [Glimepiride], `COc1cc2c(cc1OC)[C@@H](Cc1cc(OC)c(OC)c(OC)c1)[N+](C)(CCCOC(=O)CC/C=C/CCC(=O)OCCC[N+]1(C)CCc3cc(OC)c(OC)cc3[C@H]1Cc1cc(OC)c(OC)c(OC)c1)CC2` (some centres unmarked) [Mivacurium] is lower in “PPB (fb)” value: 0.99 for the first, 0.3 for the second.

Same assay, conditions: fraction bound to plasma protein; small molecule dataset, sheet 1-SM; ref Ingle et al.; cited from earlier work

Compared with `C/C=C/C[C@@H](C)C(=O)[C@H]1C(=O)N[C@@H](C(C)C)C(=O)N(C)CC(=O)N(C)[C@@H](CC(C)C)C(=O)N[C@@H](C(C)C)C(=O)N(C)[C@@H](CC(C)C)C(=O)N[C@@H](C)C(=O)N[C@H](C)C(=O)N(C)[C@@H](CC(C)C)C(=O)N(C)[C@@H](CC(C)C)C(=O)N(C)[C@@H](C(C)C)C(=O)N1C` [Valspodar], `O=C1[C@@H]2[C@H]3CC[C@H](C3)[C@@H]2C(=O)N1CCCCN1CCN(c2ncccn2)CC1` [tandospirone] is lower in “PPB (fb)” value: 0.98 for the first, 0.3 for the second.

Going from `S=P(N1CC1)(N1CC1)N1CC1` [Thiotepa] to `O=C(C1CCCCC1)N1CC(=O)N2CCc3ccccc3C2C1` (centres unmarked) [praziquantel], the “PPB (fb)” value rises from 0.1 to 0.83.

Compared with `CC(Oc1c(Cl)cccc1Cl)C1=NCCN1` (centres unmarked) [lofexidine], `CC(Oc1ccc(Cl)cc1)C(=O)NC1C(=O)N2C1SC(C)(C)C2C(=O)O` (centres unmarked) [penicillin42] is higher in “PPB (fb)” value: 0.6 for the first, 0.92 for the second.

`CSc1ccc2c(c1)N(CCC1CCCCN1C)c1ccccc1S2` (centres unmarked) [thioridazine] and `CCOc1cc(CC(=O)N[C@@H](CC(C)C)c2ccccc2N2CCCCC2)ccc1C(=O)O` [Repaglinide] are the same in “PPB (fb)” value: 0.98 for the first, 0.98 for the second.

Going from `COc1cc2c(cc1OC)C1CC(=O)C(CC(C)C)CN1CC2` (centres unmarked) [tetrabenazine] to `COC1=CC(=O)C[C@@H](C)[C@]12Oc1c(Cl)c(OC)cc(OC)c1C2=O` [griseofulvin], the “PPB (fb)” value falls from 0.85 to 0.8.

First: CC(COc1ccccc1)NC(C)C(O)c1ccc(O)cc1 (centres unmarked) [isoxsuprine]
Second: CC(C)OC(=O)C(C)(C)Oc1ccc(C(=O)c2ccc(Cl)cc2)cc1 [fenofibrate]
The “PPB (fb)” value of the first is lower: 0 for the first, 0.99 for the second.

Compared with `[H]/N=C(/N)N[C@H]1[C@H](O)[C@@H](O)[C@H](O[C@@H]2O[C@@H](C)[C@](O)(C=O)[C@H]2O[C@@H]2O[C@@H](CO)[C@H](O)[C@@H](O)[C@@H]2NC)[C@@H](N/C(N)=N\[H])[C@@H]1O` [Streptomycin], `CN[C@@H]1[C@H](O)[C@H](NC)[C@H]2O[C@@]3(O)C(=O)C[C@@H](C)O[C@H]3O[C@@H]2[C@H]1O` [spectinomycin] is lower in “PPB (fb)” value: 0.37 for the first, 0.05 for the second.

Compared with `CCC1(C)OC(=O)N(C)C1=O` (centres unmarked) [paramethadione], `CC[C@@]1(O)C(=O)OCc2c1cc1n(c2=O)Cc2cc3c(CN(C)C)c(O)ccc3nc2-1` [Topotecan] is higher in “PPB (fb)” value: 0 for the first, 0.25 for the second.

Going from `NC(=O)OCC(COC(N)=O)c1ccccc1` [felbamate] to `CC1(C)SC2C(NC(=O)C(N)c3cccc(O)c3)C(=O)N2C1C(=O)O` (centres unmarked) [penicillin32], the “PPB (fb)” value falls from 0.23 to 0.17.

Going from `CC(Oc1ccc2ccccc2c1)C(=O)NC1C(=O)N2C1SC(C)(C)C2C(=O)O` (centres unmarked) [penicillin69] to `CC(Oc1cccc(F)c1)C(=O)NC1C(=O)N2C1SC(C)(C)C2C(=O)O` (centres unmarked) [penicillin61], the “PPB (fb)” value falls from 0.95 to 0.84.

Going from `CC(C)(C)NCC(O)c1cc(O)cc(O)c1` (centres unmarked) [Terbutaline] to `CN1C(C(=O)Nc2ccccn2)=C(O)c2ccccc2S1(=O)=O` [piroxicam], the “PPB (fb)” value rises from 0.23 to 0.99.

Going from `O=C1Nc2ccc(Cl)cc2[C@@](C#CC2CC2)(C(F)(F)F)O1` [efavirenz] to `COc1cc(NS(=O)(=O)c2ccc(N)cc2)nc(OC)n1` [sulfadimethoxine], the “PPB (fb)” value falls from 0.99 to 0.95.

Going from `CCCCN1C[C@H](O)[C@@H](O)[C@H](O)[C@H]1CO` [Miglustat] to `CCN(CCCCOC(=O)c1ccc(OC)c(OC)c1)C(C)Cc1ccc(OC)cc1` (centres unmarked) [mebeverine], the “PPB (fb)” value rises from 0.01 to 0.75.

For `COc1ncnc(NS(=O)(=O)c2ccc(N)cc2)c1OC` [sulfadoxine], the “PPB (fb)” value is listed as 0.94.

Same assay, conditions: plasma; cited from earlier work

Compared with `CCN(C)C(=O)Oc1cccc([C@H](C)N(C)C)c1` [Rivastigmine], Tolcapone is higher in “PPB (fb)” value: 0.4 for the first, 0.99 for the second.

First: CN[C@@H](C)Cc1ccccc1 [Methamphetamine]
Second: CCC[S+]([O-])c1ccc2[nH]c(NC(=O)OC)nc2c1 (centres unmarked) [albendazole sulfoxide]
The “PPB (fb)” value of the first is lower: 0.15 for the first, 0.7 for the second.

First: O=[N+]([O-])O[C@H]1CO[C@H]2[C@@H]1OC[C@H]2O[N+](=O)[O-] [Isosorbide Dinitrate]
Second: O=C(O)C1N=C(c2ccccc2)c2cc(Cl)ccc2NC1=O (centres unmarked) [clorazepic acid]
The “PPB (fb)” value of the first is lower: 0.29 for the first, 0.91 for the second.

Compared with `O=C1CN=C(c2ccccc2)c2cc(Cl)ccc2N1CC1CC1` [prazepam], `CC(=O)Oc1ccc2c3c1OC1C(OC(C)=O)C=CC4C(C2)N(C)CCC341` (centres unmarked) [diamorphine] is lower in “PPB (fb)” value: 0.97 for the first, 0 for the second.

Compared with Oxytetracycline, Rifabutin is higher in “PPB (fb)” value: 0.2 for the first, 0.76 for the second.

Going from lymecycline to `CC(C)(C)NCC(O)c1cc(Cl)c(N)c(Cl)c1` (centres unmarked) [clenbuterol], the “PPB (fb)” value rises from 0.45 to 0.5.
